In patent US10731134B2, “Production method for artificial cancer stem cell and induced differentiation method therefor” (Public University Corporation Yokohama City University, priority 2011, dated 2020):
“Also recorded” adds a separate entry of the source.

Experiments:
[1] = test system: (CD44high/CD24low) cancer stem cells; conditions: mixed population of cancer stem cells and cancer cells; Gupta et al. 2009; cited from earlier work
[2] = test system: (CD44low/CD24high) cancer cells; conditions: mixed population of cancer stem cells and cancer cells; Gupta et al. 2009; cited from earlier work
[3] = test system: CSC-10A-D9 induced by differentiation from CSC-10A (induced cancer stem cells); assay: Induced differentiation of CSC-10A by addition of salinomycin (phase-contrast morphology, alkaline phosphatase staining, Western blot); assay type: cell-based, human
Method: Also, these cells were stained with an undifferentiation marker alkaline phosphatase (ALP). […] Next, these cells were lysed and subjected to Western blot.
Induced Differentiation Method for CSC-10A (Addition of Salinomycin)
CSC-10A was seeded over 10-cm dishes. After 24 hours, salinomycin was added to give a final concentration of […] and the culture was continued at 37° C. Four days after the addition of salinomycin, the cells were stained with alkaline phosphatase. The cells were recovered four days after the addition of salinomycin and subjected to Western blot which confirmed the expression of vimentin, β-catenin, and tubulin (control).

[4] = Western blot, 10 μM salinomycin, 4 days after addition

Compound | Effect on (CD44high/CD24low) cancer stem cells [1] | Effect on (CD44low/CD24high) cancer cells [2] | Staining with undifferentiation marker alkaline phosphatase (ALP-positive cells) ([3]; 10 μM salinomycin vs DMSO, 4 days after addition) | Size of each individual cell ([3]; 10 μM salinomycin vs DMSO, 4 days later) | Cell differentiation / morphology under a phase-contrast microscope ([3]; 10 μM salinomycin vs DMSO, observed 4 days later) | Expression of differentiation (epithelial) marker beta-catenin [3, 4] | Expression of stem cell (mesenchymal) marker vimentin [3, 4]
CC(=O)O[C@H]1C(=O)[C@@]2(C)[C@H]([C@H](OC(=O)c3ccccc3)[C@]3(O)C[C@H](OC(=O)[C@H](O)[C@@H](NC(=O)c4ccccc4)c4ccccc4)C(C)=C1C3(C)C)[C@]1(OC(C)=O)CO[C@@H]1C[C@@H]2O [Taxol] | left intact | only inhibits the growth of cancer cells |  |  |  |  | 
CC[C@@H](C(=O)[C@@H](C)[C@@H](O)[C@H](C)[C@@H]1O[C@@H]([C@@H](CC)C(=O)O)CC[C@@H]1C)[C@H]1O[C@]2(C=C[C@@H](O)[C@]3(CC[C@@](C)([C@H]4CC[C@](O)(CC)[C@H](C)O4)O3)O2)[C@H](C)C[C@@H]1C [salinomycin] | kills only cancer stem cells | leaving cancer cells intact | significant decrease in ALP-positive cells; also recorded: decreased | increased | differentiated into epithelial-like cells | increase | decrease
